From patent publication US8309558B2, “Compounds for the treatment of hepatitis C” (Bristol-Myers Squibb Company, priority 2008, dated 2012)

What was measured:
[1] = target: T1, HCV NS5B RdRp genotype 1b (Hepatitis C virus genotype 1b, UniProt Q9WMX2); experiment: Standard HCV NS5B RdRp enzyme assay; assay type: biochemical; conditions: Table 1b; HCV NS5B RdRp genotype 1b; read-out: IC50
T1 construct: The protein was expressed with an 18 amino acid C-terminal truncation to enhance the solubility; made in house; host or cells: E. coli BL21(DE3), pET21a vector
T1 sequence (Q9WMX2 2420-2992): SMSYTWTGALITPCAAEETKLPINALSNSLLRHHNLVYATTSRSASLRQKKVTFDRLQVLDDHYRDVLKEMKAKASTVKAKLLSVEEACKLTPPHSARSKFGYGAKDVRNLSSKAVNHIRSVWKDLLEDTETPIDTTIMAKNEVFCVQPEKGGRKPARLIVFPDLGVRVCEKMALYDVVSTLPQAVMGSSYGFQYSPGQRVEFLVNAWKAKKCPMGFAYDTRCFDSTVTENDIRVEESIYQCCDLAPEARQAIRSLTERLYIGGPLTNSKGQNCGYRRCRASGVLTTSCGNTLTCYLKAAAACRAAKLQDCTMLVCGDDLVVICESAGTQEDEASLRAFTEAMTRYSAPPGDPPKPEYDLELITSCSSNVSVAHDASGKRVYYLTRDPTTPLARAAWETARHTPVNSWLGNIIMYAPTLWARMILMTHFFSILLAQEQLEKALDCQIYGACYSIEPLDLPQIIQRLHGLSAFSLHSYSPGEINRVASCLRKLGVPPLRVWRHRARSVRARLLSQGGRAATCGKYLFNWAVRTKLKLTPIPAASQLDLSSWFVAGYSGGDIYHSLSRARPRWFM
Procedure, shortened: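 Radiometric SPA measuring 3H-UMP incorporation on polyA/biotin-oligo-dT12 (6 nM/180 nM), 0.29 μM total UTP. Enzyme: NS5B 1b lacking last 18 residues, 28 nM final, 30° C for 60 min in 20 mM Hepes pH 7.5, 2.5 mM MgCl2, 2% DMSO. IC50 from seven-point curves.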

HCV replicon cells = experiment: HCV replicon FRET / luciferase assay (96-well plates); assay type: cell-based; conditions: Hepatitis C virus, Table 1b; HCV replicon; read-out: EC50
Procedure, shortened: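 Percent activity is background-subtracted signal relative to untreated cell wells, with background taken from maximal protease-inhibitor wells. Cytotoxicity is Alamar blue fluorescence relative to controls. Replicon inhibition was read by NS3 FRET peptide cleavage (340/490 nm) or luciferase.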

SMILES	IC50 [1] [nM]	EC50 (HCV replicon cells) [nM]
CNC(=O)c1c(-c2ccc(F)cc2)oc2cc([N+](=O)[O-])c(-c3cc(C(=O)NC4(c5ccccc5)CC4)ccc3F)cc12	< 250	< 250
CNC(=O)c1c(-c2ccc(F)cc2)oc2ccc(-c3ccc(-c4cccc(CO)c4)c(C(=O)NCC(C)C)c3)cc12	< 250	< 250
CNC(=O)c1c(-c2ccc(F)cc2)oc2ccc(-c3ccc(-c4cnn(C)c4)c(C(=O)NCC(C)C)c3)cc12	< 250	< 250
CCC(O)COc1ccc(C(=O)NCC(C)C)cc1-c1ccc2oc(-c3ccc(F)cc3)c(C(=O)NC)c2c1 (stereo not shown)	250 to 1000	250 to 1000
CNC(=O)c1c(-c2ccc(F)cc2)oc2ccc(-c3cc(C(=O)NCC(C)C)ccc3OCC(C)O)cc12 (stereo not shown)	< 250	< 250
CNC(=O)c1c(-c2ccc(F)cc2)oc2ccc(-c3cc(C(=O)NCC(C)C)ccc3OCCC3CCCCN3)cc12 (stereo not shown)	< 250	< 250
CNC(=O)c1c(-c2ccc(F)cc2)oc2ccc(-c3cc(C(=O)NCC(C)C)ccc3OCc3ccncc3)cc12	< 250	< 250
CNC(=O)c1c(-c2ccc(F)cc2)oc2ccc(-c3cc(C(=O)NCC(C)C)ccc3OCC3CCCN3C(=O)OC(C)(C)C)cc12 (stereo not shown)	> 10000	1000 to 10000
CNC(=O)c1c(-c2ccc(F)cc2)oc2ccc(-c3cc(C(=O)NCC(C)C)ccc3OCC3CCCN3)cc12 (stereo not shown)	< 250	250 to 1000
CNC(=O)c1c(-c2ccc(F)cc2)oc2cc(N(CCO)S(C)(=O)=O)c(-c3cccc(C(=O)NC(C)(C)C(=O)Nc4cc(C)no4)c3)cc12	< 250	< 250
CNC(=O)c1c(-c2ccc(F)cc2)oc2ccc(-c3cc(OC)cc(C(=O)NCC(C)C)c3)cc12	250 to 1000	250 to 1000
CNC(=O)c1c(-c2ccc(F)cc2)oc2ccc(-c3cc(C(=O)NCC(C)C)ccc3OCCN)cc12	< 250	< 250
CNC(=O)c1c(-c2ccc(F)cc2)oc2ccc(-c3cc(C(=O)NCC(C)C)cc(-c4ccccc4)c3)cc12	> 10000	> 10000
CNC(=O)c1c(-c2ccc(F)cc2)oc2ccc(-c3cc(C(=O)NC(C)(C)C)ccc3C)cc12	< 250	< 250
CNC(=O)c1c(-c2ccc(F)cc2)oc2cc([N+](=O)[O-])c(-c3cc(C(=O)NC4(c5ccccc5)CC4)ccc3OC)cc12	< 250	250 to 1000
CNC(=O)c1c(-c2ccc(F)cc2)oc2ccc(-c3cc(C(=O)NC4(C#N)CC4)ccc3C)cc12	< 250	< 250
CNC(=O)c1c(-c2ccc(F)cc2)oc2cc([N+](=O)[O-])c(-c3ccc(OC)c(C(=O)NC4(c5ccccc5)CC4)c3)cc12	< 250	< 250
CNC(=O)c1c(-c2ccc(F)cc2)oc2ccc(-c3cc(N)ccc3C)cc12	1000 to 10000	1000 to 10000
CNC(=O)c1c(-c2ccc(F)cc2)oc2cc(N)c(-c3cc(C(=O)NC4(c5ccccc5)CC4)ccc3OC)cc12	< 250	< 250
CNC(=O)c1c(-c2ccc(F)cc2)oc2ccc(-c3cc(NC(=O)C4(c5ccccc5)CC4)ccc3C)cc12	1000 to 10000	250 to 1000
CNC(=O)c1c(-c2ccc(F)cc2)oc2ccc(-c3cc(C(=O)NC4(C(=O)OC)CC4)ccc3C)cc12	< 250	< 250
CNC(=O)c1c(-c2ccc(F)cc2)oc2ccc(-c3cc(C(=O)NC4(c5nnc(C)[nH]5)CC4)ccc3C)cc12	< 250	< 250
CNC(=O)c1c(-c2ccc(F)cc2)oc2cc(N)c(-c3cc(C(=O)NC4(c5ccccc5)CC4)ccc3C)cc12	< 250	< 250
CNC(=O)c1c(-c2ccc(F)cc2)oc2ccc(-c3cccc(C(=O)NC(C)(C)c4nc(C)no4)c3)cc12	< 250	< 250

SMILES	IC50 [1] [nM]	EC50 (HCV replicon cells) [nM]
CNC(=O)c1c(-c2ccc(F)cc2)oc2ccc(-c3cc(C(=O)NC4(C(=O)O)CC4)ccc3C)cc12	< 250	1000 to 10000
CNC(=O)c1c(-c2ccc(F)cc2)oc2ccc(-c3cc(C(=O)NC4(CO)CC4)ccc3C)cc12	1000 to 10000	1000 to 10000
CNC(=O)c1c(-c2ccc(F)cc2)oc2ccc(-c3cc(C(=O)NC(C)(C)CN4CCOCC4)ccc3C)cc12	< 250	< 250
CNC(=O)c1c(-c2ccc(F)cc2)oc2ccc(-c3cc(C(=O)NCC(C)C)ccc3OC(F)F)cc12	< 250	< 250
CNC(=O)c1c(-c2ccc(F)cc2)oc2ccc(-c3cc(C(=O)NC(C)(C)C4CC4)ccc3C)cc12	< 250	< 250
CNC(=O)c1c(-c2ccc(F)cc2)oc2cc(NS(C)(=O)=O)c(-c3cc(C(=O)NC4(c5ccccc5)CC4)ccc3C)cc12	< 250	< 250
CNC(=O)c1c(-c2ccc(F)cc2)oc2ccc(-c3cc(C(=O)NC4(c5nnn[nH]5)CC4)ccc3C)cc12	< 250	1000 to 10000
CNC(=O)c1c(-c2ccc(F)cc2)oc2ccc(-c3cc(C(=O)NC4(c5ccccc5)CC4)ccc3O)cc12	< 250	< 250
CNC(=O)c1c(-c2ccc(F)cc2)oc2ccc(-c3ccc(O)c(C(=O)NCC(C)C)c3)cc12	1000 to 10000	> 10000
CNC(=O)c1c(-c2ccc(F)cc2)oc2cc(N(CCO)S(C)(=O)=O)c(-c3cccc(C(=O)NC(C)(C)c4nc(C)no4)c3)cc12	< 250	< 250
CNC(=O)c1c(-c2ccc(F)cc2)oc2cc(N(CCO)S(C)(=O)=O)c(-c3cc(C(=O)NC4(c5ccccc5)CC4)ccc3C)cc12	< 250	< 250
CNC(=O)c1c(-c2ccc(F)cc2)oc2ccc(-c3cc(C(=O)NCC(C)C)ccc3OCC3CCNC3)cc12 (stereo not shown)	< 250	< 250
CNC(=O)c1c(-c2ccc(F)cc2)oc2ccc(-c3cc(C(=O)NCC(C)C)ccc3OCC3CCCNC3)cc12 (stereo not shown)	< 250	< 250
CNC(=O)c1c(-c2ccc(F)cc2)oc2ccc(-c3cc(C(=O)NC4(c5ccccn5)CC4)c(OC)cc3Cl)cc12	< 250	< 250
CNC(=O)c1c(-c2ccc(F)cc2)oc2ccc(-c3cc(C(=O)NCC(C)C)ccc3OCCC(N)=O)cc12	> 10000	> 10000
CNC(=O)c1c(-c2ccc(F)cc2)oc2ccc(-c3cc(C(=O)NCC(C)C)ccc3OCCCN)cc12	< 250	< 250
CNC(=O)c1c(-c2ccc(F)cc2)oc2ccc(-c3cc(C(=O)NC4(c5ccc(F)cc5)CC4)ccc3C)cc12	< 250	< 250
CNC(=O)c1c(-c2ccc(F)cc2)oc2ccc(-c3cc(C(=O)NCC(C)C)ccc3OC3CCC(N)C3)cc12 (stereo not shown)	< 250	< 250
CNC(=O)c1ccc(-c2ccc(-c3ccc4oc(-c5ccc(F)cc5)c(C(=O)NC)c4c3)cc2C(=O)NCC(C)C)cn1	> 10000	> 10000
CNC(=O)c1c(-c2ccc(F)cc2)oc2ccc(-c3cc(C(=O)NCC(C)C)ccc3OCCNC(N)=O)cc12	< 250	< 250
CNC(=O)c1c(-c2ccc(F)cc2)oc2ccc(-c3ccc(-c4ccc(C(N)=O)cc4)c(C(=O)NCC(C)C)c3)cc12	< 250	> 10000
CNC(=O)c1c(-c2ccc(F)cc2)oc2ccc(-c3ccc(-c4cncc(C#N)c4)c(C(=O)NCC(C)C)c3)cc12	< 250	250 to 1000
CNC(=O)c1c(-c2ccc(F)cc2)oc2ccc(-c3cc(C(=O)NC4(c5nnc(C6CC6)[nH]5)CC4)ccc3C)cc12	< 250	< 250
